Laboratory results from article PMC9461663, “Covalent Inhibition of Pyruvate Kinase M2 Reprograms Metabolic and Inflammatory Pathways in Hepatic Macrophages against Non-alcoholic Fatty Liver Disease” (International Journal of Biological Sciences, 2022).
pIC50: −log10 of the molar value.

Biological target: T1, Pyruvate kinase M2 (PKM2) (Mus musculus, UniProt P52480)
T1 construct: gene Pkm; full length recombinant mouse PKM2 (M2 isoform; pET-28a, from pLHCX-Flag-mPKM2)
Test: LC-MS/MS peptide mapping of the covalent adduct on recombinant PKM2; competition with biotin probe; pyruvate kinase activity assay (IC50)
Type: biochemical

T1 sequence (P52480 whole entry, canonical isoform): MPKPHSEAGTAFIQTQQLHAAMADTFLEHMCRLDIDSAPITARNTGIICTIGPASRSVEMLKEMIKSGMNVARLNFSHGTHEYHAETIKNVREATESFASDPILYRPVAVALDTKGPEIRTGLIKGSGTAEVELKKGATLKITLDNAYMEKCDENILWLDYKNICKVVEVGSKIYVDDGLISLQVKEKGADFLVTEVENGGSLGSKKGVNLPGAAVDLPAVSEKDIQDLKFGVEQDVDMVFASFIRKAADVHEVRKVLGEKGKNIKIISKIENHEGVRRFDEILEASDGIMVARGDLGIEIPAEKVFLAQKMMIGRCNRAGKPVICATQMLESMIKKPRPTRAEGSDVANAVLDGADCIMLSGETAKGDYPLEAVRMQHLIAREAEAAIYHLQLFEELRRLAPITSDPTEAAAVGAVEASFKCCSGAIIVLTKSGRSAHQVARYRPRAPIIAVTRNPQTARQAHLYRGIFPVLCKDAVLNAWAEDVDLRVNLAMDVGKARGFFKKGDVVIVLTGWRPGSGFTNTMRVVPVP

CC1=C(O)C(=O)C=C2C1=CC=C1[C@@]2(C)CC[C@@]2(C)[C@@H]3C[C@](C)(C(=O)O)CC[C@]3(C)CC[C@]12C [celastrol] was tested, and the pIC50 was 3.52.
